Reference: PubChem BioAssay (NCI)
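How tested: cells in 96-well plates exposed to compound for 48 hours at five concentrations. GI50: concentration for 50% inhibition of growth. At the TGI there is no net growth.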

Columns and labels:
Assay in all cases: DTP human tumour cell line panel, 48 h
TK-10 renal = tested on: TK-10 renal
OVCAR-3 ovarian = tested on: OVCAR-3 ovarian
A549 NSCLC = tested on: A549 NSCLC
IGROV1 ovarian = tested on: IGROV1 ovarian
M14 melanoma = tested on: M14 melanoma
COLO 205 colon = tested on: COLO 205 colon
HS 578T breast = tested on: HS 578T breast
OVCAR-5 ovarian = tested on: OVCAR-5 ovarian
OVCAR-8 ovarian = tested on: OVCAR-8 ovarian
CAKI-1 renal = tested on: CAKI-1 renal
SNB-19 CNS = tested on: SNB-19 CNS
SF-539 CNS = tested on: SF-539 CNS
HOP-62 NSCLC = tested on: HOP-62 NSCLC
BT-549 breast = tested on: BT-549 breast
NCI/ADR-RES ovarian = tested on: NCI/ADR-RES ovarian
786-0 renal = tested on: 786-0 renal
NCI-H460 lung = tested on: NCI-H460 lung
HCC-2998 colon = tested on: HCC-2998 colon
NCI-H226 lung = tested on: NCI-H226 lung
NCI-H522 lung = tested on: NCI-H522 lung
RPMI-8226 leukemia = tested on: RPMI-8226 leukemia
SK-MEL-28 melanoma = tested on: SK-MEL-28 melanoma
SW-620 colon = tested on: SW-620 colon
UACC-62 melanoma = tested on: UACC-62 melanoma
UO-31 renal = tested on: UO-31 renal
SR leukemia = tested on: SR leukemia
U251 CNS = tested on: U251 CNS
MDA-MB-435 = tested on: MDA-MB-435
SF-268 CNS = tested on: SF-268 CNS
HCT-116 colon = tested on: HCT-116 colon
PC-3 prostate = tested on: PC-3 prostate
LOX IMVI melanoma = tested on: LOX IMVI melanoma
HCT-15 colon = tested on: HCT-15 colon
MALME-3M melanoma = tested on: MALME-3M melanoma
OVCAR-4 ovarian = tested on: OVCAR-4 ovarian
KM12 colon = tested on: KM12 colon
MDA-MB-231 breast = tested on: MDA-MB-231 breast
HT29 colon = tested on: HT29 colon
EKVX NSCLC = tested on: EKVX NSCLC
UACC-257 melanoma = tested on: UACC-257 melanoma
SK-MEL-5 melanoma = tested on: SK-MEL-5 melanoma
SK-OV-3 ovarian = tested on: SK-OV-3 ovarian
SNB-75 CNS = tested on: SNB-75 CNS
SK-MEL-2 melanoma = tested on: SK-MEL-2 melanoma
SF-295 CNS = tested on: SF-295 CNS
SN12C renal = tested on: SN12C renal
DU-145 prostate = tested on: DU-145 prostate
ACHN renal = tested on: ACHN renal
NCI-H23 lung = tested on: NCI-H23 lung
MCF7 breast = tested on: MCF7 breast
RXF 393 renal = tested on: RXF 393 renal
HOP-92 NSCLC = tested on: HOP-92 NSCLC
A498 renal = tested on: A498 renal
T-47D breast = tested on: T-47D breast

Nc1nc(N)c2c(n1)NC(c1ccc(Cl)cc1)C1CCc3ccccc3C1=N2 (stereo not drawn)
GI50 (TK-10 renal): 8.2 µM
TGI (TK-10 renal): 23.2 µM
GI50 (OVCAR-3 ovarian): 6.46 µM
TGI (OVCAR-3 ovarian): 19 µM
GI50 (A549 NSCLC): 11.8 µM
TGI (A549 NSCLC): 25 µM
GI50 (IGROV1 ovarian): 6.16 µM
TGI (IGROV1 ovarian): 20.4 µM
GI50 (M14 melanoma): 10.4 µM
TGI (M14 melanoma): 22.1 µM
GI50 (COLO 205 colon): 2.78 µM
TGI (COLO 205 colon): 9.05 µM
GI50 (HS 578T breast): 15 µM
TGI (HS 578T breast): 50.3 µM
GI50 (OVCAR-5 ovarian): 14.9 µM
TGI (OVCAR-5 ovarian): 28.1 µM
GI50 (OVCAR-8 ovarian): 10.8 µM
TGI (OVCAR-8 ovarian): 43.1 µM
GI50 (CAKI-1 renal): 4.33 µM
TGI (CAKI-1 renal): 18.8 µM
GI50 (SNB-19 CNS): 16.8 µM
TGI (SNB-19 CNS): 30.4 µM
GI50 (SF-539 CNS): 6.17 µM
TGI (SF-539 CNS): 19.6 µM
GI50 (HOP-62 NSCLC): 11.5 µM
TGI (HOP-62 NSCLC): 23.7 µM
GI50 (BT-549 breast): 9.01 µM
TGI (BT-549 breast): 22.6 µM
GI50 (NCI/ADR-RES ovarian): 5.53 µM
TGI (NCI/ADR-RES ovarian): 18.2 µM
GI50 (786-0 renal): 11.8 µM
TGI (786-0 renal): 24.1 µM
GI50 (NCI-H460 lung): 3.77 µM
TGI (NCI-H460 lung): 12.9 µM
GI50 (HCC-2998 colon): 12.2 µM
TGI (HCC-2998 colon): 24.7 µM
GI50 (NCI-H226 lung): 8.58 µM
TGI (NCI-H226 lung): 27.8 µM
GI50 (NCI-H522 lung): 5.21 µM
TGI (NCI-H522 lung): 20.9 µM
GI50 (RPMI-8226 leukemia): 2.75 µM
TGI (RPMI-8226 leukemia): 11.5 µM
GI50 (SK-MEL-28 melanoma): 13.9 µM
TGI (SK-MEL-28 melanoma): 27.4 µM
GI50 (SW-620 colon): 8.23 µM
TGI (SW-620 colon): 22.6 µM
GI50 (UACC-62 melanoma): 3.66 µM
TGI (UACC-62 melanoma): 18.3 µM
GI50 (UO-31 renal): 3.63 µM
TGI (UO-31 renal): 17.4 µM
GI50 (SR leukemia): 1.73 µM
TGI (SR leukemia): 5.01 µM
GI50 (U251 CNS): 3.81 µM
TGI (U251 CNS): 16.3 µM
GI50 (MDA-MB-435): 4.72 µM
TGI (MDA-MB-435): 19.6 µM
GI50 (SF-268 CNS): 12.4 µM
TGI (SF-268 CNS): 26.9 µM
GI50 (HCT-116 colon): 3.72 µM
TGI (HCT-116 colon): 14.9 µM
GI50 (PC-3 prostate): 2.86 µM
TGI (PC-3 prostate): 14.5 µM
GI50 (LOX IMVI melanoma): 3.53 µM
TGI (LOX IMVI melanoma): 16.2 µM
GI50 (HCT-15 colon): 4.16 µM
TGI (HCT-15 colon): 18.5 µM
GI50 (MALME-3M melanoma): 8.48 µM
TGI (MALME-3M melanoma): 22.8 µM
GI50 (OVCAR-4 ovarian): 6.45 µM
TGI (OVCAR-4 ovarian): 21 µM
GI50 (KM12 colon): 8.48 µM
TGI (KM12 colon): 20.8 µM
GI50 (MDA-MB-231 breast): 9.73 µM
TGI (MDA-MB-231 breast): 21.8 µM
GI50 (HT29 colon): 4.31 µM
TGI (HT29 colon): 18 µM
GI50 (EKVX NSCLC): 3.62 µM
TGI (EKVX NSCLC): 21 µM
GI50 (UACC-257 melanoma): 7.07 µM
TGI (UACC-257 melanoma): 19.6 µM
GI50 (SK-MEL-5 melanoma): 0.497 µM
TGI (SK-MEL-5 melanoma): 2.02 µM
GI50 (SK-OV-3 ovarian): 11 µM
TGI (SK-OV-3 ovarian): 23 µM
GI50 (SNB-75 CNS): 13 µM
TGI (SNB-75 CNS): 26.8 µM
GI50 (SK-MEL-2 melanoma): 10.6 µM
TGI (SK-MEL-2 melanoma): 24.6 µM
GI50 (SF-295 CNS): 3.37 µM
TGI (SF-295 CNS): 14.7 µM
GI50 (SN12C renal): 7.68 µM
TGI (SN12C renal): 21.7 µM
GI50 (DU-145 prostate): 11.2 µM
TGI (DU-145 prostate): 23.3 µM
GI50 (ACHN renal): 4.72 µM
TGI (ACHN renal): 18.3 µM
GI50 (NCI-H23 lung): 4.88 µM
TGI (NCI-H23 lung): 18 µM
GI50 (MCF7 breast): 2.41 µM
TGI (MCF7 breast): 10.4 µM
GI50 (RXF 393 renal): 4.68 µM
TGI (RXF 393 renal): 19.1 µM
GI50 (HOP-92 NSCLC): 2.26 µM
TGI (HOP-92 NSCLC): 9.83 µM
GI50 (A498 renal): 5.34 µM
TGI (A498 renal): 19 µM
GI50 (T-47D breast): 4.09 µM
TGI (T-47D breast): 17.8 µM
